Assay results taken from ChEMBL document CHEMBL5236648, “Improved synthesis of deoxyalpinoid B and quantification of antileishmanial activity of deoxyalpinoid B and sulforaphane” (Bioorg Med Chem, 2023).
Active and inactive are the calls of the source. No cut-off for these calls is given here.

Experiments:
Leishmania donovani [1] = assay: Antileishmanial activity against Leishmania donovani MHOM/IN/Dd8 promastigotes assessed as promastigotes viability at 50 uM incubated for 48 hrs by MTT assay relative to control; assay type: functional
[2] = Cytotoxicity against human THP-1 cells assessed as cell viability at 50 to 100 uM incubated for 48 hrs by MTT assay relative to control
Leishmania donovani [3] = assay: Antileishmanial activity against Leishmania donovani MHOM/IN/Dd8 promastigotes assessed as promastigotes viability at 10 uM incubated for 48 hrs by MTT assay relative to control; assay type: functional
[4] = Cytotoxicity against human THP-1 cells assessed as cell viability at 5 uM incubated for 48 hrs by MTT assay relative to control; assay type: toxicity, cell-based; conditions: read-out: Activity
THP-1 [5] = assay: Induction of oxidative stress in human THP-1 cells assessed as increase in intracellular ROS level at 10 uM incubated for 1 hr by H2DCFA fluorescent probe based flow cytometry analysis; assay type: functional, cell-based
Leishmania donovani [6] = assay: Antileishmanial activity against Leishmania donovani MHOM/IN/Dd8 promastigotes assessed as inhibition of promastigotes growth incubated for 48 hrs by MTT assay; assay type: functional, organism-based; conditions: MHOM/IN/Dd8, 48 h
Leishmania donovani [7] = assay: Antileishmanial activity against Leishmania donovani MHOM/IN/Dd8 promastigotes infected in PMA-differentiated human THP-1 cells assessed as activation of neuroactive ligand-receptor interactions at 10 uM incubated for 18 hrs by KEGG analysis; assay type: functional, organism-based
Leishmania infantum = assay: Antileishmanial activity against Leishmania infantum MHOM/TN/80/IPT-1 promastigotes assessed as inhibition of promastigotes growth incubated for 48 hrs by MTT assay; assay type: functional, organism-based; conditions: MHOM/TN/80/IPT-1, 48 h
[8] = Cytotoxicity against human THP-1 cells assessed as cell viability at 10 uM incubated for 48 hrs by MTT assay relative to control; assay type: toxicity, cell-based; conditions: read-out: Activity
Leishmania donovani [9] = assay: Induction of oxidative stress in Leishmania donovani MHOM/IN/Dd8 promastigotes assessed as increase in intracellular ROS level at 10 to 50 uM incubated for 24 hrs by H2DCFA fluorescent probe based flow cytometry analysis; assay type: functional, organism-based; conditions: dose 10-50 µM
Leishmania donovani [10] = assay: Induction of oxidative stress in Leishmania donovani MHOM/IN/Dd8 promastigotes assessed as increase in mitochondrial superoxide level at 10 to 50 uM incubated for 24 hrs by Mito sox based flow cytometry analysis; assay type: functional, organism-based; conditions: dose 10-50 µM
Leishmania donovani [11] = assay: Antileishmanial activity against Leishmania donovani MHOM/IN/Dd8 promastigotes infected in PMA-differentiated human THP-1 cells assessed as increase in Hes family transcription factor 7 gene expression at 10 uM incubated for 18 hrs by RNA-seq analysis; assay type: functional, organism-based
Leishmania donovani [12] = assay: Antileishmanial activity against Leishmania donovani MHOM/IN/Dd8 promastigotes infected in PMA-differentiated human THP-1 cells assessed as increase in heat shock protein A7 expression at 10 uM incubated for 18 hrs by RNA-seq analysis; assay type: functional, organism-based
THP-1 [13] = assay: Cytotoxicity against human THP-1 cells assessed as reduction in cell viability at 50 to 100 uM incubated for 48 hrs by MTT assay; assay type: toxicity, cell-based; conditions: thp-1, 48 h, dose 50-100 µM
Leishmania donovani [14] = assay: Antileishmanial activity against Leishmania donovani MHOM/IN/Dd8 metacyclic promastigotes infected in PMA-differentiated human THP-1 cells assessed as reduction in amastigotes formation at 10 uM incubated for 48 hrs by DAPI staining based inverted microscopic analysis; assay type: functional, organism-based
Leishmania donovani [15] = assay: Antileishmanial activity against Leishmania donovani MHOM/IN/Dd8 promastigotes infected in PMA-differentiated human THP-1 cells assessed as increase in heat shock protein A6 expression at 10 uM incubated for 18 hrs by RNA-seq analysis; assay type: functional, organism-based
THP-1 [16] = assay: Induction of oxidative stress in human THP-1 cells assessed as increase in intracellular ROS level at 0.5 uM incubated for 1 hr by H2DCFA fluorescent probe based flow cytometry analysis; assay type: functional, cell-based
Leishmania donovani [17] = assay: Antileishmanial activity against Leishmania donovani MHOM/IN/Dd8 metacyclic promastigotes infected in PMA-differentiated human THP-1 cells assessed as reduction in number of amastigotes per 100 cell at 0.5 uM incubated for 48 hrs by DAPI staining based inverted microscopic analysis; assay type: functional, organism-based

Row | SMILES | Activity (Leishmania donovani [1]) [%] | viability at 48 h, 100 µM [2] [%] | Activity (Leishmania donovani [3]) [%] | viability at 48 h, 5 µM [4] [%] | Activity (THP-1 [5]) | IC50 (Leishmania donovani [6]) [µM] | Activity (Leishmania donovani [7]) | IC50 (Leishmania infantum) [µM] | viability at 48 h, 10 µM [8] [%] | Activity (Leishmania donovani [9]) | Activity (Leishmania donovani [10]) | Activity (Leishmania donovani [11]) | Activity (Leishmania donovani [12]) | Activity (THP-1 [13]) | Activity (Leishmania donovani [14]) | Activity (Leishmania donovani [15]) | Activity (THP-1 [16]) | Activity (Leishmania donovani [17])
1 | C[S+]([O-])CCCCN=C=S (stereo unspecified) [SULFORAPHANE] | <10 | < 45 | 57 | 84 | Active | 23.3 | Active | 16.5 | 76 | – | – | – | – | – | – | – | – | –
2 | COc1cc(CC/C=C/C(=O)CCc2ccccc2)ccc1O | <10 | – | 43 | 79 | Active | 21.4 | Active | 22 | 76 | Active | Active | Active | Active | Toxic | Active | Active | – | –
3 | C[C@@H]1[C@H](O)[C@@H](C)/C=C/C=C/C=C/C=C/C=C/C=C/C=C/[C@H](O[C@@H]2O[C@H](C)[C@@H](O)[C@H](N)[C@@H]2O)C[C@@H]2O[C@](O)(C[C@@H](O)C[C@@H](O)[C@H](O)CC[C@@H](O)C[C@@H](O)CC(=O)O[C@H]1C)C[C@H](O)[C@H]2C(=O)O | – | – | – | – | – | – | – | – | – | – | – | – | – | – | – | – | inactive | Active
